Calls of active or inactive are those of the source.
How the values were obtained:
Leucine aminopeptidase = target: T1, Leucine aminopeptidase (Plasmodium falciparum 3D7, UniProt Q8IL11); test: P. falciparum M17LAP inhibitors, primary screen, biochemical, fluorogenic H-Leu-NHMec substrate, 1536-well (AID 1619); assay type: functional
T1 sequence (Q8IL11 whole entry): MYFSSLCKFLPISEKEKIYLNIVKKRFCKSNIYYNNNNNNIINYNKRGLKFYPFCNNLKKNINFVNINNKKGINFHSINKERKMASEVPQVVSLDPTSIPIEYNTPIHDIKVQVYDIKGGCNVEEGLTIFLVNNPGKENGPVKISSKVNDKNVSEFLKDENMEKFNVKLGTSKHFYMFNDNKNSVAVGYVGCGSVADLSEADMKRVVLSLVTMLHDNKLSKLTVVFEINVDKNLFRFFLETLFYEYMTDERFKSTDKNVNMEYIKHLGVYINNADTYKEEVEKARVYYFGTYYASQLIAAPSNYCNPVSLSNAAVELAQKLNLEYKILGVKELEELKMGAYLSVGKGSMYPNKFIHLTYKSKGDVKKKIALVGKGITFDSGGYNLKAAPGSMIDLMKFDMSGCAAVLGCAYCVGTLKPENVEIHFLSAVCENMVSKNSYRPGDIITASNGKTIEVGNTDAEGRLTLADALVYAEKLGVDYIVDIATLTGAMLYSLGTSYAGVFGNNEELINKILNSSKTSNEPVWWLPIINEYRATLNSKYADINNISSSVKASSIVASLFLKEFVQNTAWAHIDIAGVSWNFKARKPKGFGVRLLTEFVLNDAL

[1] = target: DNA dC->dU-editing enzyme APOBEC-3G (Homo sapiens, UniProt Q9HC16); test: Dose Response confirmation of small molecule APOBEC3G DNA Deaminase Inhibitors via a fluorescence-based single-stranded DNA deaminase assay. [Related pubchem assays (depositor defined):AID493012, AID493028]; assay type: functional
DNA dC->dU-editing enzyme APOBEC-3G, sequence (Q9HC16 whole entry): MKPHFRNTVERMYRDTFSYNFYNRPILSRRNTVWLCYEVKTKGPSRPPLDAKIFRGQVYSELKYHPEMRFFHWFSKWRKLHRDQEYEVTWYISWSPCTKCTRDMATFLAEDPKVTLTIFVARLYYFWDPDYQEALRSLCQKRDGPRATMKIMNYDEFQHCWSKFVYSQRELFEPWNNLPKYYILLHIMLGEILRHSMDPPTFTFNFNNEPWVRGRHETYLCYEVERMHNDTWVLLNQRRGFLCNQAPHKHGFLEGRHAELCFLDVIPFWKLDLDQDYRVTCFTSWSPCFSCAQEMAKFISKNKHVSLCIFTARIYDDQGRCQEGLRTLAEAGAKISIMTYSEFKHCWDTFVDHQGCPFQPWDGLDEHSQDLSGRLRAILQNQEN

Large T antigen = Large T antigen (Simian virus 40, UniProt P03070); assay type: functional, Betapolyomavirus macacae;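 also: Confirmatory-stage PubChem screen for compounds that inhibit SV40 T antigen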
Large T antigen, sequence (P03070 whole entry): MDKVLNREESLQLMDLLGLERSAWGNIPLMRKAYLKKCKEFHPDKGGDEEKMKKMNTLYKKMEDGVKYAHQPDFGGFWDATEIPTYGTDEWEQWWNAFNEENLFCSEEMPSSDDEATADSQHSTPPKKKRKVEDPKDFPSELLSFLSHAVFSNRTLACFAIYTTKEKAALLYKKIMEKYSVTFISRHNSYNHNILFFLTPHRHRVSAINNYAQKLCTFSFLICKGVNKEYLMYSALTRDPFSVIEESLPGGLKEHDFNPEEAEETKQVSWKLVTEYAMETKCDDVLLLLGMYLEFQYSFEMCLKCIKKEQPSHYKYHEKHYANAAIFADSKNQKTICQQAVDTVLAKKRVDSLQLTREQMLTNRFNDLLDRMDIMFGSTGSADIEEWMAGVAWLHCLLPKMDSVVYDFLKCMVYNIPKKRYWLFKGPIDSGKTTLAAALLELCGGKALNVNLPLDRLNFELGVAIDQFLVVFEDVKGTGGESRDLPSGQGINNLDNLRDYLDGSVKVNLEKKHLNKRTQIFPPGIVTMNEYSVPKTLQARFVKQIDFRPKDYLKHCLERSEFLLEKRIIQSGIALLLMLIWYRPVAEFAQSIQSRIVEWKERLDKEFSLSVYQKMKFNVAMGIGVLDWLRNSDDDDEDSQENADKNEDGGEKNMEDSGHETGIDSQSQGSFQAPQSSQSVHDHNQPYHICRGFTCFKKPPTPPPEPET

[2] = target: DNA dC->dU-editing enzyme APOBEC-3A (Homo sapiens, UniProt P31941); test: A3A deaminase inhibition for selectivity – biochemical, dose response (AID 504722); assay type: functional
DNA dC->dU-editing enzyme APOBEC-3A, sequence (P31941 whole entry): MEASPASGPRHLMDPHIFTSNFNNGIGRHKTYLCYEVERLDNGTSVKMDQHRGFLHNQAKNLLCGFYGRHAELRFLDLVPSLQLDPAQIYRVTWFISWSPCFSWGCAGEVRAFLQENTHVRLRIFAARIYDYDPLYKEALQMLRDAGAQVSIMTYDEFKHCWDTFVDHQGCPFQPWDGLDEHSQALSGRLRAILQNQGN

[3] = target: Heat shock protein HSP 90-alpha (Homo sapiens, UniProt P07900); assay type: functional, organism-based
cells = assay type: functional
[4] = microbe, parasite or virus in culture; assay type: functional; settings: Mycobacterium tuberculosis
[5] = Vero E6 cell cytotoxicity, dose response, cytotoxicity control for non-replicating M. tuberculosis project, secondary assay (AID 492998); assay type: functional, VeroE6; settings: Vero C1008
Genome polyprotein = Genome polyprotein (dengue virus type 2, UniProt P29990); test: flavivirus cap methylation enzyme inhibition – biochemical, confirmation dose response, primary screen (AID 588689); assay type: functional
Genome polyprotein, sequence (P29990 2492-3391 limits assumed): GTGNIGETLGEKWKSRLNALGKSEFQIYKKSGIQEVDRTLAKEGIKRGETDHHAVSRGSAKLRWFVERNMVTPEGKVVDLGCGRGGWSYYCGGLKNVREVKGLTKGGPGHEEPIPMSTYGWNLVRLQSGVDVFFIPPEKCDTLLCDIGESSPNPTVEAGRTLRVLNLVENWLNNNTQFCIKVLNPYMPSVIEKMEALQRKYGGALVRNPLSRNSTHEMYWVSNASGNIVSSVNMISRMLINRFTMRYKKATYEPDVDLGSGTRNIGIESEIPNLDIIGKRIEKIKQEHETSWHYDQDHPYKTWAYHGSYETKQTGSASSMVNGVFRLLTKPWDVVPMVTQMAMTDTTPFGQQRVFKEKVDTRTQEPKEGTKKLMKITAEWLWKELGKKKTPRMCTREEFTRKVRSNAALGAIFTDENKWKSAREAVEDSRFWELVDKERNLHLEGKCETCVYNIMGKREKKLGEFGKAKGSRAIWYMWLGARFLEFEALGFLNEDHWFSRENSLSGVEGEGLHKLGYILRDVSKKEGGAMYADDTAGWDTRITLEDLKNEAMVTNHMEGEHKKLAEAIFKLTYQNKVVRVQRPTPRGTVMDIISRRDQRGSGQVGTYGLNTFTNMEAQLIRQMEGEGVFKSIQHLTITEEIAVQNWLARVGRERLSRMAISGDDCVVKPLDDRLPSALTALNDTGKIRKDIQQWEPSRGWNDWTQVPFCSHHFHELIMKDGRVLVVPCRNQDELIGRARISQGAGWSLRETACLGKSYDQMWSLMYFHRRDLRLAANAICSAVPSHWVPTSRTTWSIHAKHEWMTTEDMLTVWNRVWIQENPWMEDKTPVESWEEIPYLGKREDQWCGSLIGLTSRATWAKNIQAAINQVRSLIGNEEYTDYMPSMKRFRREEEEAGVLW

[6] = target: Beta-2 adrenergic receptor (Homo sapiens, UniProt P07550); test: ADRB2 activation measured by internalization – cell-based, FAP fluorogen, flow cytometry, cherry pick 1, dose response (AID 588763); assay type: functional
Beta-2 adrenergic receptor, sequence (P07550 whole entry): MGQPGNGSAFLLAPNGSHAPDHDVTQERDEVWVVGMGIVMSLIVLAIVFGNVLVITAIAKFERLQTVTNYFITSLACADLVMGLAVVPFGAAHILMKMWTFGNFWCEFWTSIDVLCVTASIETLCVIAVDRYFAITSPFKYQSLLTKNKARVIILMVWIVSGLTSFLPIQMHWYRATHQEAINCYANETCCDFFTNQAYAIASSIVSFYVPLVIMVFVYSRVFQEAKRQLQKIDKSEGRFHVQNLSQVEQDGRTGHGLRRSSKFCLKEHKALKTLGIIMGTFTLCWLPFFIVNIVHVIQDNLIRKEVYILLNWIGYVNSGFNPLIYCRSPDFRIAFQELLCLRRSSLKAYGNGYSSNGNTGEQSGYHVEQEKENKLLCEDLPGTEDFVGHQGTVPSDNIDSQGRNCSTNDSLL

Aminopeptidase N = target: T2, Aminopeptidase N (Plasmodium falciparum FcB1/Columbia, UniProt O96935); test: malaria alanyl aminopeptidase activity blockers – biochemical, fluorogenic H-Leu-NHMec substrate, 1536-well (AID 1445); set-up: species or system Plasmodium falciparum 3D7, 3D7
T2 sequence (O96935 whole entry): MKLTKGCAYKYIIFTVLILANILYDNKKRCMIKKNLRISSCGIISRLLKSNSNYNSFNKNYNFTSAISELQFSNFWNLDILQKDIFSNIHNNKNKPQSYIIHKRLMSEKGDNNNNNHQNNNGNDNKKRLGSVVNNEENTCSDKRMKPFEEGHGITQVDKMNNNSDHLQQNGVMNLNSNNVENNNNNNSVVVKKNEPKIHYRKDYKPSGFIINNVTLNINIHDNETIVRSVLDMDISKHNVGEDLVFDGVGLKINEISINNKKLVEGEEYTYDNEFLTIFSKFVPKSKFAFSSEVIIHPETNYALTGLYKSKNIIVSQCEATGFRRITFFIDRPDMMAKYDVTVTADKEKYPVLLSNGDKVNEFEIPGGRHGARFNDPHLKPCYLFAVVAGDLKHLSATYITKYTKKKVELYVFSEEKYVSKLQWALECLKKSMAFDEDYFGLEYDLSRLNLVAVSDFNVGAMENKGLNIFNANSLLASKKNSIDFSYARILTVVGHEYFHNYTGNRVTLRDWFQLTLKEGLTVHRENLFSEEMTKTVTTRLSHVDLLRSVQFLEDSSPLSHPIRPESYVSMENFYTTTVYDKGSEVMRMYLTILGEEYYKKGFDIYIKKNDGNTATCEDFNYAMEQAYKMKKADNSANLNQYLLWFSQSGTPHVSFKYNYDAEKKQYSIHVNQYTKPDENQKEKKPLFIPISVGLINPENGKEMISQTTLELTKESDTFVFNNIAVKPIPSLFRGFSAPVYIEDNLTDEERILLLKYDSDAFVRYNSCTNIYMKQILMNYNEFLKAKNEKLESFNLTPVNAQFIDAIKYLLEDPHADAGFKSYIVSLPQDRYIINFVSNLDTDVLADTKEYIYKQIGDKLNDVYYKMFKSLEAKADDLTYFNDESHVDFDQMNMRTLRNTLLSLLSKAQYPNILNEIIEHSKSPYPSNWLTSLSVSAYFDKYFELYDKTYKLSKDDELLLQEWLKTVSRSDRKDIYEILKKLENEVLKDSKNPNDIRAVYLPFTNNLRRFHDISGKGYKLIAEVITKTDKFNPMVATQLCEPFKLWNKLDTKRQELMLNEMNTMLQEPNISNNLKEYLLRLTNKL

[7] = target: T3, Short transient receptor potential channel 4 (Mus musculus, UniProt Q9QUQ5); test: calcium entry via TRPC4 opening agents – cell-based, HEK293 TRPC4/mu-opioid, Fluo-4 calcium, dose response (AID 434937); assay type: functional
T3 sequence (Q9QUQ5 whole entry): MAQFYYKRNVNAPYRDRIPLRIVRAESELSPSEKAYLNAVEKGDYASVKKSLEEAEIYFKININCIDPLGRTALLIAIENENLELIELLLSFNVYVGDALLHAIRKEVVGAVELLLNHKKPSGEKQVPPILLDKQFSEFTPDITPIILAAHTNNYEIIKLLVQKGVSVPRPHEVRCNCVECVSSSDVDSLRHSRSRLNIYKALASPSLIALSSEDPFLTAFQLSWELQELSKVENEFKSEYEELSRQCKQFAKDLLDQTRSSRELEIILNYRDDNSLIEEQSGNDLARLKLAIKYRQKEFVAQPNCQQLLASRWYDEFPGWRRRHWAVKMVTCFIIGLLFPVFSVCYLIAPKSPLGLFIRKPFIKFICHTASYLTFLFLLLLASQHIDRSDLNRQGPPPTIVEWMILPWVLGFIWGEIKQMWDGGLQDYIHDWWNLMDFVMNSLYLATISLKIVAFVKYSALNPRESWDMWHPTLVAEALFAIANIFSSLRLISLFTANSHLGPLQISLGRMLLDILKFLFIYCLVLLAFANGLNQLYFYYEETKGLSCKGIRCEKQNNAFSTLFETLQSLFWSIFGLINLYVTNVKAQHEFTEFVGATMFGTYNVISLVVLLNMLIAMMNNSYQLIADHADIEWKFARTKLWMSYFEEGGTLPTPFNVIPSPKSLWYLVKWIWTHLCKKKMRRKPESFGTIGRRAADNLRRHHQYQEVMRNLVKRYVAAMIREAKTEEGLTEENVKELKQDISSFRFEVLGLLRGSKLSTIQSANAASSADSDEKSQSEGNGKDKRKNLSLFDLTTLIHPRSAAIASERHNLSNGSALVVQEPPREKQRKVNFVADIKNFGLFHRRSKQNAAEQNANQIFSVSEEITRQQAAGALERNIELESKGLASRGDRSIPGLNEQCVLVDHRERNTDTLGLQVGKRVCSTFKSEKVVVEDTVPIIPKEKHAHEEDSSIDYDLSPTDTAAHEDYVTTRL

[8] = THP-1 cell cytotoxicity, dose response, cytotoxicity control for non-replicating M. tuberculosis project (AID 489025); assay type: functional
[9] = HEK-293T viability loss after treatment – luminescence, T-cell screen hits, cytotoxicity control for TCR NF-kB inhibitor project, dose response (AID 489026); assay type: functional, cell-based;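 also: cells exposed to compound about 14 hours before the viability readout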
[10] = Luminescence Cell-Based Dose Retest to Confirm Inhibitors of Cancer Stem Cells. [Related pubchem assays (depositor defined):AID2717, AID2721]; assay type: functional; settings: Homo sapiens
[11] = target: T4, Ubiquitin-conjugating enzyme E2 N (Homo sapiens, UniProt P61088); assay type: functional;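 also: Dose-response confirmation in a TR-FRET assay detecting UBC13-driven polyubiquitin chain formation, inhibition measured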
T4 sequence (P61088 whole entry): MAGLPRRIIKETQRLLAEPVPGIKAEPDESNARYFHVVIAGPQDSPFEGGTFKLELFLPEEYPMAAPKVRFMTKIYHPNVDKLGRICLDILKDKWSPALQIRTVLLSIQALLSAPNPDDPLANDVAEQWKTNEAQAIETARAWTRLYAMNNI

[12] = target: T5, Rac GTPase-activating protein 1 (Homo sapiens, UniProt Q9H0H5); test: blockers of MgcRacGAP-driven Rac1 GTP hydrolysis – biochemical, ADP Hunter fluorescence, primary and confirmatory, confirmation (AID 624330); assay type: functional
T5 sequence (Q9H0H5 whole entry): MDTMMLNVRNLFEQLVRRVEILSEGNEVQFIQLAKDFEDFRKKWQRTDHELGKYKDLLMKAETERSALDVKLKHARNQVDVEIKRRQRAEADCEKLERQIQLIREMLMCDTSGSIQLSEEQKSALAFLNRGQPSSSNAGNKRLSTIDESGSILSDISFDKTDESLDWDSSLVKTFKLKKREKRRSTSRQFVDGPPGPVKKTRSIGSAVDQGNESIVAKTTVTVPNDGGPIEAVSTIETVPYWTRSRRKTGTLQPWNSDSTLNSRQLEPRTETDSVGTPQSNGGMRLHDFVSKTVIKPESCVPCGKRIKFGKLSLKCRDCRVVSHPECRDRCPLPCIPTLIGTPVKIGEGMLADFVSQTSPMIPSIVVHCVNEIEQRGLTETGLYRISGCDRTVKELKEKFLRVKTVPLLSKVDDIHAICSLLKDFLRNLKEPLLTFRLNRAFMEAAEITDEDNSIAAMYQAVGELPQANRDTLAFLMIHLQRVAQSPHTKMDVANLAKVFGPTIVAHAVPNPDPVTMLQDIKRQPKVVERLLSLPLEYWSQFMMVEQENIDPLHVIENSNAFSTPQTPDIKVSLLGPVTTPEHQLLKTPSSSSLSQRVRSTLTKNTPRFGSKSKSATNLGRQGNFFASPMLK

SMILES: Oc1ccc(-c2n[nH]c(=S)[nH]2)cc1
- IC50 (Leucine aminopeptidase): 20.6 µM (active)
- IC50 [1]: 4.02 µM (active)
- IC50 (Large T antigen): 6.95 µM (active)
- IC50 [2]: > 100 µM (inactive)

SMILES: Cc1cccc(C)c1NC(=O)COC(=O)c1ccc([N+](=O)[O-])o1
- AC50 [3]: 2.57 µM (active)

SMILES: Cc1ccc(C)c(-c2nnc(NC(=O)C3=COCCO3)o2)c1
- IC50 (cells): 6.12 µM (active)
- CC50 [4]: > 40 µM (active)
- CC50 [5]: 19 µM (active)

SMILES: CN(C)c1ccc(C=C2C(=O)NC(=O)NC2=O)cc1[N+](=O)[O-]
- IC50 (Genome polyprotein): 16.3 µM (active)

SMILES: Cn1c(S)nnc1-c1cc2c(C(F)(F)F)nn(C)c2s1
- IC50 [1]: 1.84 µM (active)
- IC50 [2]: > 100 µM (inactive)

SMILES: c1nc(NCCN2CCOCC2)c2sc3nc(N4CCOCC4)c4c(c3c2n1)CCC4
- EC50 [6]: 3.34 µM (active)

SMILES: Cc1ccc2c(c1)c1nnc(SCC(=O)N3CCCc4ccccc43)nc1n2CC(=O)O
- IC50 (Aminopeptidase N): 26.8 µM (active)

SMILES: O=C(c1sc2ccccc2c1Cl)N(Cc1cccs1)C1CCS(=O)(=O)C1 (stereo not given)
- EC50 [7]: 1.88 µM (active)

SMILES: O=C(NCc1cccs1)C1CCN(S(=O)(=O)c2cccs2)CC1
- IC50 (Aminopeptidase N): 51.9 µM (active)

SMILES: CCOC(=O)c1sc2nc(CSc3ccccc3)nc(NCCN(C)C)c2c1C
- IC50 (cells): 22.5 µM (active)
- CC50 [8]: 31.2 µM (active)
- CC50 [5]: 17.8 µM (active)

SMILES: C/C=C(\C)C(=O)N[C@@H](c1ccccc1)[C@@H](O)C(=O)O[C@H]1C[C@@]2(O)[C@@H](OC(=O)c3ccccc3)C3[C@](C)(C(=O)[C@H](O)C(=C1C)C2(C)C)[C@@H](O)C[C@H]1OC[C@@]31OC(C)=O (stereo not given in full)
- IC50 [9]: > 80 µM (inactive)

SMILES: O=C(Nc1ccc(Cl)cc1Cl)c1cccc(N2C(=O)C=CC2=O)c1
- CC50 [8]: > 40 µM (active)
- IC50 [1]: 13.8 µM (active)
- AC50 [3]: 0.295 µM (active)
- IC50 [2]: > 100 µM (inactive)

SMILES: CN(CC(=O)Nc1cccc(F)c1)C(=O)c1cn(-c2ccccc2)nc1-c1ccc(Cl)cc1
- AC50 [10]: 2.93 µM (active)
- AC50 [3]: 8.31 µM (active)

SMILES: O=C(Nc1ccccc1)c1ccccc1CCc1ccccc1
- EC50 [6]: 1.7 µM (active)

SMILES: CSc1ccc(CNC(=O)c2ccc(NC(=O)C3=CSCCO3)cc2)cc1
- EC50 [6]: 0.0482 µM (active)

SMILES: COC(=O)c1[nH]c2ccc(F)cc2c1NS(=O)(=O)c1ccc(OC)cc1
- IC50 [9]: > 80 µM (inactive)

SMILES: O=C(OCc1cccc([N+](=O)[O-])c1)c1cccnc1Cl
- IC50 [11]: > 20 µM (inactive)

SMILES: COC(=O)NCC(c1ccc2c(c1)OCO2)N1CCN(c2ccc(OC)cc2)CC1 (stereo not given)
- EC50 [7]: 0.944 µM (active)
- IC50 [12]: 123 µM (active)

SMILES: CCc1ccc2nc(SCC(=O)Nc3ccccc3N3CCOCC3)c(C#N)cc2c1
- IC50 [9]: > 80 µM (inactive)
- AC50 [10]: 2.39 µM (active)

SMILES: Cn1cncc1C#Cc1c(-c2ccsc2)sc2ccccc12
- AC50 [10]: 4.68 µM (active)
- AC50 [3]: 7.16 µM (active)

SMILES: CC[C@@H](C)[C@@H]1CN([C@@H](C)CN2CCC[C@H]2CN2C(N)=NC[C@@H]2Cc2ccccc2)C(=N)N1CCCC1CCCC1
- IC50 [11]: > 20 µM (inactive)

SMILES: CN(C)c1ccc(/C=N/n2c(S)nnc2-c2cccnc2)cc1
- IC50 [1]: 2.56 µM (active)
- IC50 [2]: > 100 µM (inactive)

SMILES: Cc1ccsc1/C=N/n1c(S)nnc1-c1ccncc1
- IC50 [1]: 2.45 µM (active)
- IC50 [2]: > 100 µM (inactive)

From ChEMBL document CHEMBL1201862, “PubChem BioAssay data set” (2004)
